Experimental data reported in US11890288B2, “Sulfonamide or sulfinamide compound having effect of inducing BRD4 protein degradation and pharmaceutical use thereof” (MITSUBISHI TANABE PHARMA CORPORATION, priority 2020, dated 2024).

Assays:
BRD4 protein = BRD4 protein (Homo sapiens (Human), UniProt O60885); test: BRD4 protein degradation inducing action in LNCaP cells (immunofluorescence, 6 hr); assay type: cell-based; conditions: anti-BRD4 fluorescence intensity
Experimental: The degradation inducing action of the compound of the present invention on BRD4 proteins in cancer cells was evaluated in vitro using human prostate cancer LNCaP cells. LNCaP cells were suspended in 10% FBS/RPMI1640, seeded in a 96 well Cell carrier plate (Perkin Elmer) and cultured at 5% CO2, 37° C. overnight. A test compound dissolved in DMSO was diluted with 10% FBS/RPMI1640 and added and the cells were further cultured for 6 hr. After culturing, the cells were immobilized with 4% para-formaldehyde/PBS and further subjected to a permeation treatment with 0.25% Triton X-100/PBS. Thereafter, the cells were blocked with 10% BSA/PBS, Anti-BRD4 (Sigma-Aldrich) solution was added and the cells were incubated at 4° C. overnight. Furthermore, Goat anti-Rabbit IgG(H+L) Cross-Adsorbed Secondary Antibody, Alexa Fluor 546 (Thermo Fisher Scientific) solution, 0.5 μg/mL Hoechst 33342 (Sigma-Aldrich), and 14 μM Acti-Stain 555 Fluorescent Phalloidin (Cytoskeleton) were added. After incubation for 1 hr, BRD4 protein amount was measured by Operetta (Perkin Elmer) as fluorescence intensity (excitation: 560 nm, emission: 572 nm). The BRD4 protein degradation inducing activity of the compound of the present invention in LNCaP cells is shown in DC50 value in Table 3. The DC50 value is a concentration of the compound showing 50% fluorescence intensity when the fluorescence intensity thereof under compound untreated condition is 100%. It was calculated from the straight line connecting the fluorescence intensity at two points enclosing the 50% fluorescence intensity and the compound concentration.

[1] = tested on: human prostate cancer LNCaP cells; test: Cytotoxic action on LNCaP cells (WST-8, 96 hr); assay type: cell-based; conditions: 96 hr culture
Experimental: The cytotoxic action of the compound of the present invention against human cancer cells was evaluated in vitro. In this experiment, (+)-JQ1 (Nature volume 468, pages 1067-1073 (23 Dec. 2010)) known to have an inhibitory activity on the binding of BRD4 protein and a ligand therefor was used as a positive control drug. Respective cells were suspended in 10% FBS/RPMI1640, seeded in a 96 well plate and cultured at 5% CO2, 37° C. overnight. A test compound dissolved in DMSO was diluted with 10% FBS/RPMI1640 and added and the cells were further cultured for 96 hr. After culturing, the viable cell number was measured using a cell number measurement WST-8 kit (Kishida Chemical Co., Ltd.). As a control, the measurement was performed under conditions free of the test compound. The cytotoxic activity of the compound of the present invention against human prostate cancer LNCaP cells is shown in IC50 value in Table 1. The IC50 value is a concentration of the compound showing 50% cell survival rate when the cell survival rate thereof under compound untreated condition is 100%. It was calculated from the straight line connecting the cell survival rate at two points enclosing the 50% cell survival rate and the compound concentration. In addition, the cytotoxic activity against respective cancer cells of human acute myeloid leukemia MV-4-11 cell, human chronic myeloid leukemia K562 cell, human multiple myeloma MM.1S cell, human diffuse large B-cell lymphoma SU-DHL-6 cell, human T-cell leukemia Jurkat cells, human Burkitt lymphoma Raji cell, human castration-resistant prostate cancer PC-3 cell, human AR-V7 positive castration-resistant prostate cancer 22Rv1 cell, human ovarian cancer A2780 cell, human cisplatin-resistant ovarian cancer SK-OV-03 cell, human bladder cancer 5637 cell, human breast cancer ZR-75-1 cell, human triple negative breast cancer MDA-MB-231 cell, human uterus cervix cancer HeLa cell, human uterine sarcoma MES-SA cell, human stomach cancer SNU-16 cell, human non-small cell lung cancer NCI-H2126 cell, human EGFRT790M mutation-positive non-small cell lung cancer NCI-H1975 cell, human small cell lung cancer NCI-H82 cell, human large cell lung cancer NCI-H460 cell, human colon cancer HCT116 cell, human glioma U-87 MG cell, human pancreatic cancer BxPC-3 cell, human liver cancer HLF cell, human bile duct cancer HuCCT1 cell, human renal cell cancer 786-O cell, and human fibrosarcoma HT1080 cell is shown in IC50 value in Table 2.

| Compound | DC50 (BRD4 protein) | IC50 [1] |
| --- | --- | --- |
| Cc1sc2c(c1C)C(c1ccc(-c3ccc(C(=O)NCc4ccc(S(=O)(=O)Nc5ccc(C)c6c(C#N)c[nH]c56)cc4)c(Cl)c3)cc1)=N[C@@H](CC(=O)OC(C)(C)C)c1nnc(C)n1-2 [Example Compound 140, t-butyl [(6S)-4-{3′-chloro-4′-[({4-[(3-cyano-4-methyl-1H-indol-7-yl)sulfamoyl]phenyl}methyl)carbamoyl][1,1′-biphenyl]-4-yl}-2,3,9-trimethyl-6H-thieno[3,2-f][1,2,4]triazolo[4,3-a][1,4]diazepin-6-yl]acetate] | 0.38 nM | 0.52 nM |
| COC(=O)C[C@@H]1N=C(c2ccc(-c3ccc(C(=O)NCc4ccc(S(=O)(=O)Nc5ccc(C)c6c(C#N)c[nH]c56)cc4)nn3)cc2)c2c(sc(C)c2C)-n2c(C)nnc21 [Example Compound 149, methyl [(6S)-4-(4-{6-[({4-[(3-cyano-4-methyl-1H-indol-7-yl)sulfamoyl]phenyl}methyl)carbamoyl]pyridazin-3-yl}phenyl)-2,3,9-trimethyl-6H-thieno[3,2-f][1,2,4]triazolo[4,3-a][1,4]diazepin-6-yl]acetate] | 0.18 nM | 0.54 nM |
| Cc1sc2c(c1C)C(c1ccc(-c3cc(F)c(C(=O)NCc4ccc(S(=O)(=O)Nc5ccc(C)c6c(C#N)c[nH]c56)cc4)c(Cl)c3)cc1)=N[C@@H](C)c1nnc(C)n1-2 [Example 72, 3-chloro-N-({4-[(3-cyano-4-methyl-1H-indol-7-yl)sulfamoyl]phenyl}methyl)-5-fluoro-4′-[(6S)-2,3,6,9-tetramethyl-6H-thieno[3,2-f][1,2,4]triazolo[4,3-a][1,4]diazepin-4-yl][1,1′-biphenyl]-4-carboxamide] | 65 nM | 5.5 nM |
| COC(=O)C[C@@H]1N=C(c2ccc(-c3cnc(C(=O)NCCc4ccc(S(=O)(=O)Nc5ccc(C)c6c(C#N)c[nH]c56)cc4)cn3)cc2)c2c(sc(C)c2C)-n2c(C)nnc21 [Example 102, methyl [(6S)-4-(4-{5-[(2-{4-[(3-cyano-4-methyl-1H-indol-7-yl)sulfamoyl]phenyl}ethyl)carbamoyl]pyrazin-2-yl}phenyl)-2,3,9-trimethyl-6H-thieno[3,2-f][1,2,4]triazolo[4,3-a][1,4]diazepin-6-yl]acetate] | 0.036 nM | 0.071 nM |
| COC(=O)C[C@@H]1N=C(c2ccc(-c3ccc(C(=O)NCc4ccc(S(=O)(=O)Nc5ccc(C)c6c(C#N)c[nH]c56)cc4)s3)cc2)c2c(sc(C)c2C)-n2c(C)nnc21 [Example 59, methyl [(6S)-4-(4-{5-[({4-[(3-cyano-4-methyl-1H-indol-7-yl)sulfamoyl]phenyl}methyl)carbamoyl]thiophen-2-yl}phenyl)-2,3,9-trimethyl-6H-thieno[3,2-f][1,2,4]triazolo[4,3-a][1,4]diazepin-6-yl]acetate] | 0.22 nM | 0.23 nM |
| COC(=O)C[C@@H]1N=C(c2ccc(-c3ccc(C(=O)N[C@H](C)c4ccc(S(=O)(=O)Nc5ccc(C)c6c(C#N)c[nH]c56)cc4)cc3Cl)cc2)c2c(sc(C)c2C)-n2c(C)nnc21 [Example 84, methyl [(6S)-4-(2′-chloro-4′-{[(1R)-1-{4-[(3-cyano-4-methyl-1H-indol-7-yl)sulfamoyl]phenyl}ethyl]carbamoyl}[1,1′-biphenyl]-4-yl)-2,3,9-trimethyl-6H-thieno[3,2-f][1,2,4]triazolo[4,3-a][1,4]diazepin-6-yl]acetate] | 0.23 nM | 0.58 nM |
| COC(=O)C[C@@H]1N=C(c2ccc(-c3ccc(C(=O)N[C@H](C)c4ccc(S(=O)(=O)Nc5ccc(C)c6c(C#N)c[nH]c56)cc4)cc3F)cc2)c2c(sc(C)c2C)-n2c(C)nnc21 [Example 85, methyl [(6S)-4-(4′-{[(1R)-1-{4-[(3-cyano-4-methyl-1H-indol-7-yl)sulfamoyl]phenyl}ethyl]carbamoyl}-2′-fluoro[1,1′-biphenyl]-4-yl)-2,3,9-trimethyl-6H-thieno[3,2-f][1,2,4]triazolo[4,3-a][1,4]diazepin-6-yl]acetate] | 0.074 nM | 0.26 nM |
| COC(=O)C[C@@H]1N=C(c2ccc(-c3cc(C)c(C(=O)N[C@H](C)c4ccc(S(=O)(=O)Nc5ccc(C)c6c(C#N)c[nH]c56)cc4)cc3F)cc2)c2c(sc(C)c2C)-n2c(C)nnc21 [Example 98, methyl [(6S)-4-(4′-{[(1R)-1-{4-[(3-cyano-4-methyl-1H-indol-7-yl)sulfamoyl]phenyl}ethyl]carbamoyl}-2′-fluoro-5′-methyl[1,1′-biphenyl]-4-yl)-2,3,9-trimethyl-6H-thieno[3,2-f][1,2,4]triazolo[4,3-a][1,4]diazepin-6-yl]acetate] | 0.098 nM | 0.22 nM |
| COC(=O)C[C@@H]1N=C(c2ccc(-c3ccc(C(=O)NCCc4ccc(S(=O)(=O)Nc5ccc(C)c6c(C#N)c[nH]c56)cc4)c(Cl)c3)cc2)c2c(sc(C)c2C)-n2c(C)nnc21 [Example 41, methyl [(6S)-4-{3′-chloro-4′-[(2-{4-[(3-cyano-4-methyl-1H-indol-7-yl)sulfamoyl]phenyl}ethyl)carbamoyl][1,1′-biphenyl]-4-yl}-2,3,9-trimethyl-6H-thieno[3,2-f][1,2,4]triazolo[4,3-a][1,4]diazepin-6-yl]acetate] | 0.41 nM | 1.1 nM |
| Cc1sc2c(c1C)C(c1ccc(-c3ccc(C(=O)N[C@H](C)c4ccc(S(=O)(=O)Nc5ccc(C)c6c(C#N)c[nH]c56)cc4)cc3)cc1)=N[C@@H](CC(=O)OC(C)(C)C)c1nnc(C)n1-2 [Example Compound 134, t-butyl [(6S)-4-(4′-{[(1R)-1-{4-[(3-cyano-4-methyl-1H-indol-7-yl)sulfamoyl]phenyl}ethyl]carbamoyl}[1,1′-biphenyl]-4-yl)-2,3,9-trimethyl-6H-thieno[3,2-f][1,2,4]triazolo[4,3-a][1,4]diazepin-6-yl]acetate] | 0.31 nM | 0.55 nM |
| COC(=O)C[C@@H]1N=C(c2ccc(-c3cnc(C(=O)NCc4ccc(S(=O)(=O)Nc5ccc(C)c6c(C#N)c[nH]c56)cc4)c(C)c3)cc2)c2c(sc(C)c2C)-n2c(C)nnc21 [Example 91, methyl [(6S)-4-(4-{6-[({4-[(3-cyano-4-methyl-1H-indol-7-yl)sulfamoyl]phenyl}methyl)carbamoyl]-5-methylpyridin-3-yl}phenyl)-2,3,9-trimethyl-6H-thieno[3,2-f][1,2,4]triazolo[4,3-a][1,4]diazepin-6-yl]acetate] | 0.029 nM | 0.26 nM |
| COC(=O)C[C@@H]1N=C(c2ccc(-c3cc(F)c(C(=O)NCc4ccc(S(=O)(=O)Nc5ccc(C)c6c(C#N)c[nH]c56)cc4)cc3F)cc2)c2c(sc(C)c2C)-n2c(C)nnc21 [Example 82, methyl [(6S)-4-{4′-[({4-[(3-cyano-4-methyl-1H-indol-7-yl)sulfamoyl]phenyl}methyl)carbamoyl]-2′,5′-difluoro[1,1′-biphenyl]-4-yl}-2,3,9-trimethyl-6H-thieno[3,2-f][1,2,4]triazolo[4,3-a][1,4]diazepin-6-yl]acetate] | 0.25 nM | 0.27 nM |
| COC(=O)C[C@@H]1N=C(c2ccc(-c3cc(F)c(C(=O)N[C@H](C)c4ccc(S(=O)(=O)Nc5ccc(C)c6c(C#N)c[nH]c56)cc4)cc3F)cc2)c2c(sc(C)c2C)-n2c(C)nnc21 [Example 97, methyl [(6S)-4-(4′-{[(1R)-1-{4-[(3-cyano-4-methyl-1H-indol-7-yl)sulfamoyl]phenyl}ethyl]carbamoyl}-2′,5′-difluoro[1,1′-biphenyl]-4-yl)-2,3,9-trimethyl-6H-thieno[3,2-f][1,2,4]triazolo[4,3-a][1,4]diazepin-6-yl]acetate] | 0.064 nM | 0.12 nM |
